PMC10709440, “High-throughput ligand profile characterization in novel cell lines expressing seven heterologous insect olfactory receptors for the detection of volatile plant biomarkers” (Scientific Reports, 2023)
Values joined by “and” are separate entries in the source; they are usually repeats but may differ in a detail not shown here. Equal values may be shown once.

What was measured:
[1] = tested on: OR13a; parameters: method as in earlier work; settings: DoOR database value; ref DoOR; cited from earlier work
[2] = tested on: OR49b; parameters: method as in PMID 23329732; settings: OR49b in Xenopus oocytes; read-out: calculated EC50; cited from earlier work
[3] = tested on: OR49b; settings: 80 μM; OR49b transiently in HEK293T cells; cited from earlier work
[4] = target: T1, Drosophila OR49b (Drosophila melanogaster, UniProt Q9V6H2); assay: cell-based
T1 construct: expressed in transfected cells
T1 sequence (Q9V6H2 1-375): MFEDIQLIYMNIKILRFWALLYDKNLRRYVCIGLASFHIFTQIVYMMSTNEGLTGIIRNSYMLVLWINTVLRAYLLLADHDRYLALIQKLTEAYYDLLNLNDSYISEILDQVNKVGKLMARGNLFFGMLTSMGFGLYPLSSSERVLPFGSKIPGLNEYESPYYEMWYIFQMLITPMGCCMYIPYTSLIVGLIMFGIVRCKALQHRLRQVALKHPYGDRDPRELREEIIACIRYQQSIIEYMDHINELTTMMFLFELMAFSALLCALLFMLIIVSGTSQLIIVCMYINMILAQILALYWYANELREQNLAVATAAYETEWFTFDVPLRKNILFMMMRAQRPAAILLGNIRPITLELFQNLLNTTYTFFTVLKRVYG
T1 sequence (Q9VNB5 1-486 partner): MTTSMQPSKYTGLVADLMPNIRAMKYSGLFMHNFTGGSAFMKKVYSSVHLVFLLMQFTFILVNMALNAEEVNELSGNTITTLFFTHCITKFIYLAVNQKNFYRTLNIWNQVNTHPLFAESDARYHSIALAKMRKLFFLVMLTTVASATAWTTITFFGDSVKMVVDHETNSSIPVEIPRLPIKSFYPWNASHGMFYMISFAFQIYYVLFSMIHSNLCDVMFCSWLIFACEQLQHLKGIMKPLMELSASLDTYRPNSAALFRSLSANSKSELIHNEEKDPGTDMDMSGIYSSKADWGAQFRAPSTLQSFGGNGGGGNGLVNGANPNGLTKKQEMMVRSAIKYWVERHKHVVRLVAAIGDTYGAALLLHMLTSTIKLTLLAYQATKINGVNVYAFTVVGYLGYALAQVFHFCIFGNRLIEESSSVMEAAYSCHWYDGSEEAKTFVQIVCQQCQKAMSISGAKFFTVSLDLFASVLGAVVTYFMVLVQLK
Method: These VUAA1 normalized ∆F values were used to compare the different receptors and ligands.
The concentration-dependent effect of the reference ligands on their cognate cell lines was examined in more detail. Twelve different ligand concentrations were measured on each cell line in an overall 0.01 μM to 100 μM concentration range with 5 repetitions with three technical replicates each time.
Twelve thousand to 18,000 cells were plated into each well of a black wall, transparent bottom 384-well microplate (Greiner) 48 h or 72 h before the measurements and were simultaneously treated with 1 μg/mL doxycycline. […] The plate has 24 columns, thus we could record responses in up to eight different cell lines in each plate. On the day of the experiment, the growth medium was replaced with 20 µL assay buffer/well (140 mM NaCl, 5 mM KCl, 2 mM CaCl2, 1 mM MgCl2, 5 mM HEPES-Na, 20 mM glucose, pH 7.3, 340 mOsm). […] Baseline fluorescence (F0) was recorded for 5 s, after which 7 µL VOC buffer (140 mM NaCl, 5 mM KCl, 2 mM CaCl2, 1 mM MgCl2, 5 mM HEPES-Na, 31 mM glucose, 0.1% DMSO, pH 7.3, 340 mOsm) was injected into each well in one row and the fluorescence response was recorded for an additional 30 s, at a rate of one read/sec. VOC solutions (VOC buffer with 4× concentration of the final measured VOC concentration, 9 µL/well was injected) were measured on the same wells in a second round with the same protocol. Each individual concentration of a specific VOC sample was recorded in three wells for the same cell line on the same microplate. The raw data were exported in xls file format, F0 and FMAX values, and the fluorescence intensity changes (∆F) were calculated in Excel (Microsoft) (Supplementary file Data summary.xlsx) using the following equation: ΔF=FMAX-F0/F0 (see also Fig. 1C). On each plate, we recorded the response of each cell line to 50 µM VUAA1. The average of these ∆F values of each cell line were used to calculate the VUAA1-normalized values for the rest of the plate, by dividing VOC response ∆F values by the average VUAA1 response ∆F value of the corresponding OR cell line. Each VOC-OR combination was measured three times as technical replicates. […] The average of these replicates were used as one ∆F and VUAA1-normalized ∆F in the following analysis.
In the next rows we tested the reference VOCs (or other VOCs known to activate the corresponding cell lines), in order to test if all cell lines are responsive. The remaining rows were used to test VOCs with unknown effect.
The recorded FMAX, F0, ∆F, VUAA1-normalized ∆F values, as well as the OR name, the name of the tested sample, and the final concentration for each well were copied into supplementary file Data summary.xlsx, that was used to summarize all the plates recorded. Here, the averages of the measurements were calculated for each receptor-VOC-concentration combination.

[5] = OR49b, average of 5 biological replicates
[6] = OR49b, fit of each biological replicate
[7] = OR49b, fit of the averaged curve

CC(=O)CCC=C(C)C [6-methyl-5-hepten-2-one]
OR13a DoOR response [1]: 0.44

Cc1ccccc1O [2-methylphenol]
EC50 [2]: 239 ± 76 µM | response [3]: 38.5% | EC50 ([4]; EC50 (fitted parameter), OR49b, fit of each biological replicate): 3.35 µM and 16.1 µM and 14.8 µM and 21 µM and 31.6 µM | EC50 ([4]; EC50, AVERAGE, OR49b, arithmetic average of 5 replicate EC50): 17.4 µM | EC50 ([4]; EC50, FITTED AVERAGE CURVE, OR49b, fit of the averaged curve): 24.4 µM | EC50 ([4]; EC50, OR49b cell line, fitted Hill equation, Hill coefficient constrained to 1, maximal response max 1): 13.9 µM | EC50 ([4]; LOG EC50 (fitted parameter), OR49b, fit of each biological replicate, log of EC50, unit inferred): 3.35 µM and 16.1 µM and 14.8 µM and 21 µM and 31.6 µM | EC50 ([4]; LOG EC50, AVERAGE, OR49b, average of 5 biological replicates): 14 µM | response, AVERAGE ([4]; OR49b, VOC concentration 0.075): 0 | response, biological replicates ([4]; OR49b, VOC concentration 0.075): 0 | response, AVERAGE ([4]; OR49b, VOC concentration 0.15): 0 | response, biological replicates ([4]; OR49b, VOC concentration 0.15): 0 | response, AVERAGE ([4]; OR49b, VOC concentration 0.3): 0.0628 | response, biological replicates ([4]; OR49b, VOC concentration 0.3): 0 (2×) and 0.1244 and 0.09727 and 0.09231 | response, AVERAGE ([4]; OR49b, VOC concentration 0.6): 0.04614 | response, biological replicates ([4]; OR49b, VOC concentration 0.6): 0 (3×) and 0.1263 and 0.1043 | response, AVERAGE ([4]; OR49b, VOC concentration 1.25): 0.07731 | response, biological replicates ([4]; OR49b, VOC concentration 1.25): 0 (2×) and 0.1346 and 0.1269 and 0.1251 | response, AVERAGE ([4]; OR49b, VOC concentration 2.5): 0.06463 | response, biological replicates ([4]; OR49b, VOC concentration 2.5): 0.1405 and 0 (2×) and 0.06363 and 0.119 | response, AVERAGE ([4]; OR49b, VOC concentration 5): 0.1447 | response, biological replicates ([4]; OR49b, VOC concentration 5): 0.2459 and 0.1808 and 0.1356 and 0.1611 and 0 | response, AVERAGE ([4]; OR49b, VOC concentration 10): 0.2704 | response, biological replicates ([4]; OR49b, VOC concentration 10): 0.4119 and 0.3158 and 0.288 and 0.1952 and 0.1409 | response, AVERAGE ([4]; OR49b, VOC concentration 20): 0.5849 | response, biological replicates ([4]; OR49b, VOC concentration 20): 0.5662 and 0.6184 and 0.7088 and 0.601 and 0.43 | response, AVERAGE ([4]; OR49b, VOC concentration 40): 0.6048 | response, biological replicates ([4]; OR49b, VOC concentration 40): 0.5892 and 0.7837 and 0.6143 and 0.432 | response, AVERAGE ([4]; OR49b, VOC concentration 60): 0.7233 | response, biological replicates ([4]; OR49b, VOC concentration 60): 0.8924 and 0.8145 and 0.74 and 0.4464 | response, AVERAGE ([4]; OR49b, VOC concentration 80): 0.613 | response, biological replicates ([4]; OR49b, VOC concentration 80): 0 and 0.9414 and 0.8681 and 0.8023 and 0.453 | response, AVERAGE ([4]; OR49b, VOC concentration 100): 0.818 | response, biological replicates ([4]; OR49b, VOC concentration 100): 0.8641 and 0.8887 and 0.8515 and 0.6679 | AVERAGE MAX [4, 5]: 0.8353 | n, AVERAGE [4, 5]: 1 | MAX (fitted parameter) [4, 6]: 0.4157 and 1 (3×) and 0.7607 | n (fitted parameter) [4, 6]: 1 | MAX, fitted average curve [4, 7]: 1 | n, FITTED AVERAGE CURVE [4, 7]: 0.855
